Assay results from the NIST ThermoML archive (doi:10.1021/je100823t).
± gives the expanded uncertainty stated by the source.

Tests used:
[1] = 101 kPa, Liquid; for viscosity: Capillary tube (Ostwald / Ubbelohde) method; for mass density: Pycnometric method
[2] = xn = mol fraction of the nth substance listed; settings: 101 kPa, Liquid; for viscosity: Capillary tube (Ostwald / Ubbelohde) method; for mass density: Pycnometric method

CCCCCCO [hexan-1-ol]
[1]
Settings	mass density [kg/m3]	viscosity [mPa·s]
308.15 K	808.5 ± 1.1	3.318 ± 0.039
318.15 K	801.2 ± 1	2.518 ± 0.031

Cc1cccc(C)c1 [1,3-dimethylbenzene]
[1]
Settings	mass density [kg/m3]	viscosity [mPa·s]
308.15 K	851.3 ± 1.1	0.521 ± 0.012
318.15 K	842.7 ± 1.1	0.47 ± 0.011

Cc1ccc(C)cc1 [1,4-dimethylbenzene]
[1]
Settings	mass density [kg/m3]	viscosity [mPa·s]
308.15 K	848.2 ± 1.1	0.541 ± 0.012
318.15 K	839.5 ± 1.1	0.486 ± 0.012

Cc1ccccc1C [1,2-dimethylbenzene]
[1]
Settings	mass density [kg/m3]	viscosity [mPa·s]
308.15 K	866.7 ± 1.1	0.666 ± 0.013
318.15 K	858.4 ± 1.1	0.591 ± 0.012

Cc1ccccc1C [1,2-dimethylbenzene] + CCCCCCO
[2]
Settings	mass density, 308.15 K [kg/m3]	mass density, 318.15 K [kg/m3]	viscosity, 308.15 K [mPa·s]	viscosity, 318.15 K [mPa·s]
x2 = 0	866.7 ± 1.1	858.4 ± 1.1	0.666 ± 0.013	0.591 ± 0.012
x2 = 0.0999	860.1 ± 1.1	851.7 ± 1.1	0.709 ± 0.013	0.621 ± 0.012
x2 = 0.1999	853.9 ± 1.1	845.6 ± 1.1	0.789 ± 0.014	0.683 ± 0.013
x2 = 0.2999	847.9 ± 1.1	839.7 ± 1.1	0.899 ± 0.014	0.768 ± 0.013
x2 = 0.4001	842.1 ± 1.1	833.9 ± 1.1	1.043 ± 0.016	0.879 ± 0.014
x2 = 0.4997	836.4 ± 1.1	828.3 ± 1.1	1.23 ± 0.017	1.02 ± 0.016
x2 = 0.6	830.7 ± 1.1	822.7 ± 1.1	1.475 ± 0.02	1.199 ± 0.017
x2 = 0.7	825.1 ± 1.1	817.2 ± 1.1	1.799 ± 0.023	1.431 ± 0.019
x2 = 0.8	819.5 ± 1.1	811.8 ± 1.1	2.217 ± 0.027	1.73 ± 0.022
x2 = 0.8999	814 ± 1.1	806.4 ± 1	2.738 ± 0.033	2.104 ± 0.027

Cc1cccc(C)c1 [1,3-dimethylbenzene] + CCCCCCO
[2]
Settings	mass density, 308.15 K [kg/m3]	mass density, 318.15 K [kg/m3]	viscosity, 308.15 K [mPa·s]	viscosity, 318.15 K [mPa·s]
x2 = 0	851.3 ± 1.1	842.7 ± 1.1	0.521 ± 0.012	0.47 ± 0.011
x2 = 0.1002	846.4 ± 1.1	837.6 ± 1.1	0.562 ± 0.012	0.502 ± 0.012
x2 = 0.2002	841.7 ± 1.1	833 ± 1.1	0.638 ± 0.013	0.561 ± 0.012
x2 = 0.3007	837.2 ± 1.1	828.7 ± 1.1	0.742 ± 0.013	0.643 ± 0.013
x2 = 0.4001	833 ± 1.1	824.6 ± 1.1	0.875 ± 0.014	0.747 ± 0.013
x2 = 0.5	828.8 ± 1.1	820.6 ± 1.1	1.057 ± 0.016	0.885 ± 0.014
x2 = 0.5999	824.7 ± 1.1	816.6 ± 1.1	1.298 ± 0.018	1.066 ± 0.016
x2 = 0.6999	820.6 ± 1.1	812.7 ± 1.1	1.629 ± 0.021	1.306 ± 0.018
x2 = 0.7999	816.6 ± 1.1	808.8 ± 1.1	2.072 ± 0.026	1.623 ± 0.021
x2 = 0.8999	812.6 ± 1.1	805 ± 1.1	2.643 ± 0.032	2.031 ± 0.026

CCCCCCO [hexan-1-ol] + Cc1ccccc1C
[2], x1 = 1
Settings	mass density [kg/m3]	viscosity [mPa·s]
308.15 K	808.5 ± 1.1	3.318 ± 0.039
318.15 K	801.2 ± 1	2.518 ± 0.031

CCCCCCO [hexan-1-ol] + Cc1cccc(C)c1
[2], x1 = 1
Settings	mass density [kg/m3]	viscosity [mPa·s]
308.15 K	808.5 ± 1.1	3.318 ± 0.039
318.15 K	801.2 ± 1.1	2.518 ± 0.031

CCCCCCO [hexan-1-ol] + Cc1ccc(C)cc1
[2]
Settings	mass density, 308.15 K [kg/m3]	mass density, 318.15 K [kg/m3]	viscosity, 308.15 K [mPa·s]	viscosity, 318.15 K [mPa·s]
x1 = 0.1001	843.6 ± 1.1	834.9 ± 1.1	0.578 ± 0.012	0.513 ± 0.012
x1 = 0.2001	839.4 ± 1.1	830.8 ± 1.1	0.647 ± 0.013	0.567 ± 0.012
x1 = 0.2999	835.4 ± 1.1	826.9 ± 1.1	0.742 ± 0.013	0.643 ± 0.013
x1 = 0.4001	831.4 ± 1.1	823.1 ± 1.1	0.87 ± 0.014	0.743 ± 0.013
x1 = 0.5009	827.5 ± 1.1	819.3 ± 1.1	1.046 ± 0.016	0.877 ± 0.014
x1 = 0.5999	823.7 ± 1.1	815.6 ± 1.1	1.279 ± 0.018	1.051 ± 0.016
x1 = 0.6999	819.9 ± 1.1	811.9 ± 1.1	1.602 ± 0.021	1.287 ± 0.018
x1 = 0.8	816.1 ± 1.1	808.3 ± 1.1	2.042 ± 0.026	1.604 ± 0.021
x1 = 0.9	812.3 ± 1.1	804.7 ± 1.1	2.618 ± 0.032	2.017 ± 0.026
x1 = 1	808.5 ± 1.1	801.2 ± 1.1	3.318 ± 0.039	2.518 ± 0.031

Cc1ccc(C)cc1 [1,4-dimethylbenzene] + CCCCCCO
[2], x2 = 0
Settings	mass density [kg/m3]	viscosity [mPa·s]
308.15 K	848.2 ± 1.1	0.541 ± 0.012
318.15 K	839.5 ± 1.1	0.486 ± 0.012
